In US20230086702A1, “SUBSTITUTED 2-AMINO-PYRAZOLYL-[1,2,4]TRIAZOLO[1,5A]PYRIDINE DERIVATIVES AND USE THEREOF” (The Johns Hopkins University, priority 2019, published 2023):

Key:
LZK = molecular target: T1, LZK (Homo sapiens, UniProt O43283); test: LZK biochemical assay (TR-FRET, MKK7 phosphorylation); conditions: LZK catalytic domain, MKK7 substrate, 15 μM ATP
T1 construct: 10 nM LZK, catalytic domain, Carna Biosiences in assay buffer; purchased Carna Biosciences ('Carna Biosiences' [sic])
T1 sequence (O43283 168-409 limits assumed): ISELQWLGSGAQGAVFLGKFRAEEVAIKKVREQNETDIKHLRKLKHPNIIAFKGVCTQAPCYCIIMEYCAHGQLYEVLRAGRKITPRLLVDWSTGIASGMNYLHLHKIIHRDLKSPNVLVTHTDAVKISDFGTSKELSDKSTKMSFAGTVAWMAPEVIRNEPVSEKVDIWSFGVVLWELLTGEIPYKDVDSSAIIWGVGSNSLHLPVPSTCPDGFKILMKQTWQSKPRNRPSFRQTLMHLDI

DLK = molecular target: T2, DLK (Homo sapiens, UniProt Q12852); test: DLK biochemical assay (TR-FRET, MKK7 phosphorylation); conditions: DLK catalytic domain, MKK7 substrate, 60 μM ATP
T2 construct: 10 nM DLK, catalytic domain, Carna Biosiences; purchased Carna Biosciences ('Carna Biosiences' [sic])
T2 sequence (Q12852 125-366 limits assumed): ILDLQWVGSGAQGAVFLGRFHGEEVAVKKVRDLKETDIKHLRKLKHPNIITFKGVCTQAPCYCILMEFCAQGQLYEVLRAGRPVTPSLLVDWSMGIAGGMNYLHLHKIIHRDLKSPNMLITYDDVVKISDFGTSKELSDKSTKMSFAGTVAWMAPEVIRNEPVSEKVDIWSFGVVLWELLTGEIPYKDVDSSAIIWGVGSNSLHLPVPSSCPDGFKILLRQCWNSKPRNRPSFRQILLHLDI
How it was run: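 TR-FRET read-out (ratio of 665 nm acceptor to Eu donor channel) tracks MKK7 T275/S277 phosphorylation by DLK, using Eu-labelled anti-phospho-MKK7 and XL665-labelled anti-His on His-MKK7. Reactions were stopped and detected in pH 7.5 Tris buffer containing 100 mM EDTA, 100 mM NaCl, 200 mM KF and 0.01% Tween 20.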

Compound | IC50 (LZK) | IC50 (DLK)
CC[C@H](C)NC(=O)c1cc(-c2cnn(C(c3ccccc3)C(C)(C)C)c2)cn2nc(N)nc12 (single isomer, unassigned) [Example I-35] | 990 nM | 410 nM
CC[C@H](C)NC(=O)c1cc(-c2cnn(C(c3ccccc3)C(C)(C)C)c2)cn2nc(N)nc12 (single isomer, unassigned) [Example I-36] | 180 nM | 25 nM
CC[C@H](C)NC(=O)c1cc(-c2cnn(C(CC(F)(F)F)c3ccccc3)c2)cn2nc(N)nc12 (single isomer, unassigned) [Example I-38] | 91 nM | 1.3 nM
CC[C@H](C)NC(=O)c1cc(-c2cnn(C(CC(F)(F)F)c3ccccc3)c2)cn2nc(N)nc12 (single isomer, unassigned) [Example I-39] | 230 nM | 24 nM
CC[C@H](C)NC(=O)c1cc(-c2cnn(C(COC)c3ccccc3)c2)cn2nc(N)nc12 (single isomer, unassigned) [Example I-41] | 26 nM | 2.8 nM
CC[C@H](C)NC(=O)c1cc(-c2cnn(C(COC)c3ccccc3)c2)cn2nc(N)nc12 (single isomer, unassigned) [Example I-42] | 37 nM | 9.8 nM
CC[C@H](C)NC(=O)c1cc(-c2cnn(C(c3ccc(F)cc3)C(C)C)c2)cn2nc(N)nc12 (single isomer, unassigned) [Example I-44] | 160 nM | 33 nM
CC[C@H](C)NC(=O)c1cc(-c2cnn([C@H](c3ccc(F)cc3)C(C)C)c2)cn2nc(N)nc12 (single isomer, unassigned) [Example I-45] | 32 nM | 1.3 nM
CC[C@H](C)NC(=O)c1cc(-c2cnn(Cc3ccc(C(F)(F)F)cc3)c2)cn2nc(N)nc12 (single isomer, unassigned) [Example I-46] | 40 nM | 25 nM
CCC(c1ccc(N2CCOCC2)cc1)n1cc(-c2cc(C(=O)N[C@@H](C)CC)c3nc(N)nn3c2)cn1 (single isomer, unassigned) [Example I-48] | 120 nM | 25 nM
CCC(c1ccc(N2CCOCC2)cc1)n1cc(-c2cc(C(=O)N[C@@H](C)CC)c3nc(N)nn3c2)cn1 (single isomer, unassigned) [Example I-49] | 17 nM | 1.5 nM
CC[C@H](C)NC(=O)c1cc(-c2cnn(Cc3cccc4cn[nH]c34)c2)cc2nc(N)nn12 (single isomer, unassigned) [Example I-50] | 25 nM | 1.6 nM
CC[C@H](C)NC(=O)c1cc(-c2cnn(C(c3ccccc3)C3CCOCC3)c2)cc2nc(N)nn12 (single isomer, unassigned) [Example I-52] | 5.6 nM | 0.7 nM
CC[C@H](C)NC(=O)c1cc(-c2cnn(C(c3ccccc3)C3CCOCC3)c2)cc2nc(N)nn12 (single isomer, unassigned) [Example I-53] | 24 nM | 11 nM
CC[C@H](C)NC(=O)c1cc(-c2cnn([C@@H](CC)c3ccc(F)cc3)c2)cc2nc(N)nn12 (single isomer, unassigned) [Example I-54] | 8.5 nM | 1.9 nM
CCC(c1ccc(F)cn1)n1cc(-c2cc(C(=O)N[C@@H](C)CC)c3nc(N)nn3c2)cn1 (single isomer, unassigned) [Example I-56] | 19 nM | 2.7 nM
CCC(c1ccc(F)cn1)n1cc(-c2cc(C(=O)N[C@@H](C)CC)c3nc(N)nn3c2)cn1 (single isomer, unassigned) [Example I-57] | 61 nM | 59 nM
CCC(c1cncc(Cl)c1)n1cc(-c2cc(C(=O)N[C@@H](C)CC)c3nc(N)nn3c2)cn1 (single isomer, unassigned) [Example I-59] | 58 nM | 20 nM
CC[C@H](C)NC(=O)c1cc(-c2cnn([C@@H](CC)c3cncc(Cl)c3)c2)cn2nc(N)nc12 (single isomer, unassigned) [Example I-60] | 8.9 nM | 3.7 nM
CC[C@H](C)NC(=O)c1cc(-c2cnn(C(c3cncc(Cl)c3)C(C)C)c2)cn2nc(N)nc12 (single isomer, unassigned) [Example I-62] | 74 nM | 8.8 nM
CC[C@H](C)NC(=O)c1cc(-c2cnn(C(c3cncc(Cl)c3)C(C)C)c2)cn2nc(N)nc12 (single isomer, unassigned) [Example I-63] | 5.2 nM | 0.4 nM

Compound | IC50 (LZK) | IC50 (DLK)
CCC(c1ccc(C(F)F)nc1)n1cc(-c2cc(C(=O)N[C@@H](C)CC)c3nc(N)nn3c2)cn1 (single isomer, unassigned) [Example I-65] | 33 nM | 25 nM
CCC(c1ccc(C(F)F)nc1)n1cc(-c2cc(C(=O)N[C@@H](C)CC)c3nc(N)nn3c2)cn1 (single isomer, unassigned) [Example I-66] | 4.1 nM | 0.8 nM
CC[C@H](C)NC(=O)c1cc(-c2cnn(C(c3ccc(C(F)F)nc3)C(C)C)c2)cn2nc(N)nc12 (single isomer, unassigned) [Example I-68] | 43 nM | 14 nM
CC[C@H](C)NC(=O)c1cc(-c2cnn(C(c3ccc(C(F)F)nc3)C(C)C)c2)cn2nc(N)nc12 (single isomer, unassigned) [Example I-69] | 3.9 nM | 1 nM
CC[C@H](C)NC(=O)c1cc(-c2cnn([C@@H](CC)c3ccc(C(F)(F)F)nc3)c2)cn2nc(N)nc12 (single isomer, unassigned) [Example I-71] | 4.5 nM | 1.4 nM
CC[C@H](c1ccc(C(F)(F)F)nc1)n1cc(-c2cc(C(=O)N[C@@H](C)CC)c3nc(N)nn3c2)cn1 (single isomer, unassigned) [Example I-72] | 16 nM | 10 nM
CC[C@H](C)NC(=O)c1cc(-c2cnn(C(c3ccc(C(F)(F)F)nc3)C(C)C)c2)cn2nc(N)nc12 (single isomer, unassigned) [Example I-74] | 16 nM | 10 nM
CC[C@H](C)NC(=O)c1cc(-c2cnn([C@H](c3ccc(C(F)(F)F)nc3)C(C)C)c2)cn2nc(N)nc12 (single isomer, unassigned) [Example I-75] | 2.4 nM | 1.1 nM
CC[C@H](C)NC(=O)c1cc(-c2cnn(C(c3ccc(C(F)(F)F)nc3)C3CCOCC3)c2)cn2nc(N)nc12 (single isomer, unassigned) [Example I-77] | 6.9 nM | 5.9 nM
CC[C@H](C)NC(=O)c1cc(-c2cnn(C(c3ccc(C(F)(F)F)nc3)C3CCOCC3)c2)cn2nc(N)nc12 (single isomer, unassigned) [Example I-78] | 1.7 nM | 0.7 nM
CC[C@H](C)NC(=O)c1cc(-c2cnn(C(c3ccc(C(F)(F)F)nc3)C3CCNCC3)c2)cn2nc(N)nc12 (single isomer, unassigned) [Example I-82] | 0.5 nM | 0.9 nM
CC[C@H](C)NC(=O)c1cc(-c2cnn(C(c3ccc(C(F)(F)F)nc3)C3CCNCC3)c2)cn2nc(N)nc12 (single isomer, unassigned) [Example I-83] | 0.7 nM | 0.3 nM
CCC(c1ccc(OCC(F)(F)F)nc1)n1cc(-c2cc(C(=O)N[C@@H](C)CC)c3nc(N)nn3c2)cn1 (single isomer, unassigned) [Example I-86] | 160 nM | 100 nM
CCC(c1ccc(OCC(F)(F)F)nc1)n1cc(-c2cc(C(=O)N[C@@H](C)CC)c3nc(N)nn3c2)cn1 (single isomer, unassigned) [Example I-87] | 16 nM | 1.3 nM
CC[C@H](C)NC(=O)c1cc(-c2cnn(C(c3ccc(OCC(F)(F)F)nc3)C(C)C)c2)cn2nc(N)nc12 (single isomer, unassigned) [Example I-89] | 2000 nM | 230 nM
CC[C@H](C)NC(=O)c1cc(-c2cnn(C(c3ccc(OCC(F)(F)F)nc3)C(C)C)c2)cn2nc(N)nc12 (single isomer, unassigned) [Example I-90] | 34 nM | 3 nM
CCC(c1ccc(C(F)F)nc1)n1cc(-c2cc(C(=O)N[C@@H](C)CC)n3nc(N)nc3c2)cn1 (single isomer, unassigned) [Example I-93] | 6.3 nM | 6.5 nM
CC[C@H](C)NC(=O)c1cc(-c2cnn([C@@H](CC)c3ccc(C(F)F)nc3)c2)cc2nc(N)nn12 (single isomer, unassigned) [Example I-94] | 1.9 nM | 1 nM
CC[C@H](C)NC(=O)c1cc(-c2cnn(C(c3ccc(C(F)F)nc3)C(C)C)c2)cc2nc(N)nn12 (single isomer, unassigned) [Example I-96] | 17 nM | 14 nM
CC[C@H](C)NC(=O)c1cc(-c2cnn([C@H](c3ccc(C(F)F)nc3)C(C)C)c2)cc2nc(N)nn12 (single isomer, unassigned) [Example I-97] | 2.1 nM | 0.9 nM
